Assay results from patent US20260274832A1, “COMPOUNDS AND THEIR USE IN TREATING CANCER” (ASTRAZENECA AB, priority 2023, published 2026).

What was measured:
[1] = target: T1, AR (AR-full length) in LNCaP cells (Homo sapiens, UniProt P10275, T878A); experiment: LNCaP Androgen Receptor Imaging Assay (immunofluorescence of endogenous nuclear AR); assay type: cell-based; conditions: 24 h incubation; for DC50: concentration giving 50% of maximum degradation of AR per curve fit, single experiment or average of two or more; for Dmax: LNCaP; for Dmax / LNCaP AR Degradation Dmax: maximum degradation observed, normalized as % of positive control (prior art AR PROTAC at 3 μM)
T1 construct: the prostate cancer cell line LNCaP (expressing AR-full length); endogenous in cells; host or cells: LNCaP
T1 sequence (P10275 whole entry T878A): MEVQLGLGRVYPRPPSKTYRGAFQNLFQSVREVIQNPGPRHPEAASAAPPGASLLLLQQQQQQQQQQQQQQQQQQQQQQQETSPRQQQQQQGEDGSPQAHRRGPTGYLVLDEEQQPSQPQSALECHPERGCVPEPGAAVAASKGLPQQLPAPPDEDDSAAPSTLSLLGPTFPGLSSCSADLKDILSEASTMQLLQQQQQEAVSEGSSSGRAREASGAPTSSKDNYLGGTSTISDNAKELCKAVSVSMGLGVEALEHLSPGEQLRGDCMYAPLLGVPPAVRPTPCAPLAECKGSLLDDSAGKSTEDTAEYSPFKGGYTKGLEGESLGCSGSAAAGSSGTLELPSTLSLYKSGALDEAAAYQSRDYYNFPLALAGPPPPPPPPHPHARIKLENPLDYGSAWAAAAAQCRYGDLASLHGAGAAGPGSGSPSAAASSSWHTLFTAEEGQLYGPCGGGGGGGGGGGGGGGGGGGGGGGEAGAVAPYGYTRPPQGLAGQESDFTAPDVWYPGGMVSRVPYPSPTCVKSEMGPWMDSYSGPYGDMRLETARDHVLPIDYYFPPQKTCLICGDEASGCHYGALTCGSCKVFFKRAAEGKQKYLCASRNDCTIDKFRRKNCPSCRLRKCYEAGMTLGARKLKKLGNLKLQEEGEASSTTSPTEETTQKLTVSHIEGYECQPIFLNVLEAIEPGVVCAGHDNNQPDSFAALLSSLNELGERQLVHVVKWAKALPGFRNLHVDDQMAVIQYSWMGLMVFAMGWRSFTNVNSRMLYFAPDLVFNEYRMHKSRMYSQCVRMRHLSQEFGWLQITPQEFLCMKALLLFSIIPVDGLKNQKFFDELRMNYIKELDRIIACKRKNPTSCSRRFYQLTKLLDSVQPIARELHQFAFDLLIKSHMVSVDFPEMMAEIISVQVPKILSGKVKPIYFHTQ
T1 sequence (Q96SW2 whole entry partner): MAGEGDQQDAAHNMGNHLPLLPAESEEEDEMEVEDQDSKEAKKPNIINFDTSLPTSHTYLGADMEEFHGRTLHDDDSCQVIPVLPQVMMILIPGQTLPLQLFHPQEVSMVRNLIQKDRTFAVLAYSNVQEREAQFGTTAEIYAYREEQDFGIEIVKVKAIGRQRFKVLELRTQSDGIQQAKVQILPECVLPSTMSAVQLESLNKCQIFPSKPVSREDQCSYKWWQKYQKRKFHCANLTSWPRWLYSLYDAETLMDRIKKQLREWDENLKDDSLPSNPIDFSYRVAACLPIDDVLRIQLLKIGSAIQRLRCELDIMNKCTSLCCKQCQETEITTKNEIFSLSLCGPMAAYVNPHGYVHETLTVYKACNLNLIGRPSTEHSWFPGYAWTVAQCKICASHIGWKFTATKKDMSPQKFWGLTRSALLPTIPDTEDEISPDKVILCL
How it was run: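 Endogenous nuclear AR level was imaged by immunofluorescence after 24 h compound exposure (12-point dose response, 0.3% DMSO, 37° C./5% CO2) in LNCaP cells. Data were expressed as % of a 3 μM prior-art AR PROTAC control and fitted (bell fit where a hook appeared) to give DC50 and maximum degradation Dmax.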

[2] = target: T2, AR (L702H) in LNCaP cells (Homo sapiens, UniProt P10275, L702H/T878A); experiment: LNCaP Androgen Receptor L702H Imaging Assay (LNCaP cells engineered by CRISPR/Cas9); assay type: cell-based; conditions: LNCaP cells with AR L702H mutation, 24 h incubation; for DC50: concentration giving 50% of maximum degradation of AR (L702H) per curve fit; for Dmax: LNCaP
T2 construct: engineered to introduce the mutation L702H into the AR gene using CRISPR/Cas9; endogenous in cells; host or cells: LNCaP cells edited by CRISPR/Cas9 at the AR gene
T2 sequence (P10275 whole entry L702H/T878A): as the sequence (P10275 whole entry T878A) above, with L702H counted along it
T2 sequence (Q96SW2 whole entry partner): as the sequence (Q96SW2 whole entry partner) above
How it was run: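 AR (L702H) degradation, expressed as DC50 and Dmax from curve fits normalized to a positive degrader control, was measured by high-content imaging of anti-AR immunofluorescence. The engineered LNCaP line was dosed over 12 concentrations for 24 h, 0.3% DMSO final, before PFA fixation.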

[3] = maximum degradation observed, normalized as % of positive control

DC50 [1]	Dmax [1]	DC50 [2]	Dmax [2, 3]	Compound	LNCaP AR Degradation Dmax [1]	LNCaP AR (L702H) Degradation Dmax [2, 3]
4 nM	85%	37 nM	92%	N#Cc1c[nH]c2c(N3CCC(NC(=O)c4ccc(N5CCC(N6CCN(c7cc8c(cc7F)C(=O)N(C7CCC(=O)NC7=O)C8=O)CC6)CC5)cn4)CC3)ccc(Cl)c12 (stereo not drawn) [Example 166, N-[1-(4-Chloro-3-cyano-1H-indol-7-yl)piperidin-4-yl]-5-(4-{4-[2-(2,6-dioxopiperidin-3-yl)-6-fluoro-1,3-dioxo-2,3-dihydro-1H-isoindol-5-yl]piperazin-1-yl}piperidin-1-yl)pyridine-2-carboxamide]		
3100 nM		> 3000 nM		Cc1ccc(C2CCCN(c3ccc(N4CCC(CN5CCN(c6ccc7c(c6)CN(C6CCC(=O)NC6=O)C7=O)CC5)CC4)cc3)C2)c2[nH]cc(C#N)c12 (single isomer, unassigned) [Example 83, 7-[(3S*)-1-{4-[4-({4-[2-(2,6-dioxopiperidin-3-yl)-1-oxo-2,3-dihydro-1H-isoindol-5-yl]piperazin-1-yl}methyl)piperidin-1-yl]phenyl}piperidin-3-yl]-4-methyl-1H-indole-3-carbonitrile]	100%	
19 nM	84%	29 nM	91%	COc1nc(N2CCN(CC3CCN(c4ccc(C5CCN(c6ccc(Cl)c7c(C#N)c[nH]c67)CC5)cc4)CC3)CC2)cc2c1C(=O)N(C1CCC(=O)NC1=O)C2 (single isomer, unassigned) [Example 35, 4-Chloro-7-[4-(4-{4-[(4-{2-[(3R*)-2,6-dioxopiperidin-3-yl]-4-methoxy-3-oxo-2,3-dihydro-1H-pyrrolo[3,4-c]pyridin-6-yl}piperazin-1-yl)methyl]piperidin-1-yl}phenyl)piperidin-1-yl]-1H-indole-3-carbonitrile]		
3 nM	94%	2 nM	88%	N#Cc1c[nH]c2c(N3CCCC(NC(=O)c4ccc(N5CCC(CN6CCN(c7ccc8c(c7)CN(C7CCC(=O)NC7=O)C8=O)CC6)CC5)cn4)C3)ccc(Cl)c12 (single isomer, unassigned) [Example 180, N-[(3R*)-1-(4-Chloro-3-cyano-1H-indol-7-yl)piperidin-3-yl]-5-[4-({4-[2-(2,6-dioxopiperidin-3-yl)-1-oxo-2,3-dihydro-1H-isoindol-5-yl]piperazin-1-yl}methyl)piperidin-1-yl]pyridine-2-carboxamide]		
1 nM	104%	3 nM	102%	N#Cc1c[nH]c2c(N3CCC(NC(=O)c4cnc(N5CCC(CN6CCC(n7ccc8c(N9CCC(=O)NC9=O)cccc87)CC6)CC5)cn4)CC3)ccc(Cl)c12 [Example 176, N-[1-(4-Chloro-3-cyano-1H-indol-7-yl)piperidin-4-yl]-5-[4-({4-[4-(2,4-dioxo-1,3-diazinan-1-yl)-1H-indol-1-yl]piperidin-1-yl}methyl)piperidin-1-yl]pyrazine-2-carb oxamide]		
15 nM	90%	11 nM	100%	COc1nc(N2CCN(CC3CCN(c4ccc(C5CCN(c6ccc(F)c7c(C#N)c[nH]c67)CC5)cc4)CC3)CC2)cc2c1C(=O)N(C1CCC(=O)NC1=O)C2 (stereo not drawn) [Example 37, 7-(4-{4-[4-({4-[2-(2,6-Dioxopiperidin-3-yl)-4-methoxy-3-oxo-2,3-dihydro-1H-pyrrolo[3,4-c]pyridin-6-yl]piperazin-1-yl}methyl)piperidin-1-yl]phenyl}piperidin-1-yl)-4-fluoro-1H-indole-3-carbonitrile]		
10 nM	105%	20 nM	109%	Cn1c(C2CCN(CC3CCN(c4ccc([C@@H]5CCCN(c6ccc(Cl)c7c(C#N)c[nH]c67)C5)cc4)CC3)CC2)cc2cc(F)c(N3CCC(=O)NC3=O)cc21 [Example 137, 4-Chloro-7-[(3S)-3-{4-[4-({4-[6-(2,4-dioxo-1,3-diazinan-1-yl)-5-fluoro-1-methyl-1H-indol-2-yl]piperidin-1-yl}methyl)piperidin-1-yl]phenyl}piperidin-1-yl]-1H-indole-3-carbonitrile]		
1 nM	103%	1 nM	108%	N#Cc1c[nH]c2c(N3CCC(NC(=O)c4ccc(N5CCC(CN6CCC(n7ccc8c(N9CCC(=O)NC9=O)cccc87)CC6)CC5)nn4)CC3)ccc(Cl)c12 [Example 179, N-[1-(4-Chloro-3-cyano-1H-indol-7-yl)piperidin-4-yl]-6-[4-({4-[4-(2,4-dioxo-1,3-diazinan-1-yl)-1H-indol-1-yl]piperidin-1-yl}methyl)piperidin-1-yl]pyridazine-3-carboxamide]		
1 nM	87%	2 nM	96%	N#Cc1c[nH]c2c(N3CCC(NC(=O)c4ccc(N5CCC(CN6CCN(c7ccc8c(c7)CN(C7CCC(=O)NC7=O)C8=O)CC6)CC5)cn4)CC3)ccc(Cl)c12 (stereo not drawn) [Example 168, N-[1-(4-Chloro-3-cyano-1H-indol-7-yl)piperidin-4-yl]-5-[4-({4-[2-(2,6-dioxopiperidin-3-yl)-1-oxo-2,3-dihydro-1H-isoindol-5-yl]piperazin-1-yl}methyl)piperidin-1-yl]pyridine-2-carboxamide]		
7 nM	84%	7 nM	100%	COc1nc(N2CCN(CC3CCN(c4ccc([C@H]5CCCN(c6ccc(Cl)c7c(C#N)c[nH]c67)C5)cc4)CC3)CC2)cc2c1C(=O)N(C1CCC(=O)NC1=O)C2 (stereo partly drawn) [Example 47, 4-Chloro-7-[(3R)-3-{4-[4-({4-[2-(2,6-dioxopiperidin-3-yl)-4-methoxy-3-oxo-2,3-dihydro-1H-pyrrolo[3,4-c]pyridin-6-yl]piperazin-1-yl}methyl)piperidin-1-yl]phenyl}piperidin-1-yl]-1H-indole-3-carbonitrile]		
14 nM	93%	18 nM	96%	N#Cc1c[nH]c2c(N3CCC(c4ccc(N5CCC(CN6CCN(c7ccc8c(c7)CN(C7CCC(=O)NC7=O)C8=O)CC6)CC5)cc4)CC3)ccc(Cl)c12 (single isomer, unassigned) [Example 18, 4-Chloro-7-[4-(4-{4-[(4-{2-[(3R*)-2,6-dioxopiperidin-3-yl]-1-oxo-2,3-dihydro-1H-isoindol-5-yl}piperazin-1-yl)methyl]piperidin-1-yl}phenyl)piperidin-1-yl]-1H-indole-3-carbonitrile]		

Compound	DC50 [1]	Dmax [1]	DC50 [2]	Dmax [2, 3]	LNCaP AR Degradation Dmax [1]	LNCaP AR (L702H) Degradation Dmax [2, 3]
Cc1ccc(C2CCCN(c3ccc(OCCCCN4CCN(c5ccc6c(c5)CN(C5CCC(=O)NC5=O)C6=O)CC4)cc3)C2)c2[nH]cc(C#N)c12 (single isomer, unassigned) [Example 78, 7-{(3R*)-1-[4-(4-{4-[2-(2,6-dioxopiperidin-3-yl)-1-oxo-2,3-dihydro-1H-isoindol-5-yl]piperazin-1-yl}butoxy)phenyl]piperidin-3-yl}-4-methyl-1H-indole-3-carbonitrile]	1370 nM		3100 nM		70%	100%
Cc1ccc(N2CCC(c3ccc(OCCCCN4CCN(c5ccc6c(c5)C(=O)N(C5CCC(=O)NC5=O)C6=O)CC4)cc3)CC2)c2[nH]cc(C#N)c12 (stereo not drawn) [Example 56, 7-{4-[4-(4-{4-[2-(2,6-Dioxopiperidin-3-yl)-1,3-dioxo-2,3-dihydro-1H-isoindol-5-yl]piperazin-1-yl}butoxy)phenyl]piperidin-1-yl}-4-methyl-1H-indole-3-carbonitrile]	61 nM	101%	357 nM	94%		
